Measured values from patent US11078232B2, “Preparation and use of molecular site targeted and activated kinase inhibitor” (Yafei Shanghai Biology Medicine Science & Technology Co. …, priority 2017, dated 2021).
Where two headings read alike, the source gives them in different places. Residues, ends and D or L forms follow the SMILES beside them. *: point of attachment. Doxorubicin(3'-N) = COc1cccc2c1C(=O)c1c(O)c3c(c(O)c1C2=O)C[C@@](O)(C(=O)CO)C[C@@H]3O[C@H]1C[C@H](N*)[C@H](O)[C@H](C)O1; X1 = CN(CCNC(=O)c1cc(Oc2ccc(NC(=O)Nc3ccc(Cl)c(C(F)(F)F)c3)cc2)ccn1)*; Hexanoyl(6-maleimido) = O=C1C=CC(=O)N1CCCCCC(=O)*

How the values were obtained:
[1] = system: D121 lung cancer cells; assay: D121 lung cancer immunotherapy model; conditions: for Tumor inhibition rate/% (week 7) / CD8: CD45 (%): single agent; for Tumor inhibition rate/% (week 7): i.v. ⅙ MTD once a week for 4 weeks; for CD8: CD45 (%): tumor CD8+ T cells among CD45-positive cells
Experimental: (1) D121 lung cancer cells purchased from ATCC were cultured in DMEM medium containing 10% fetal bovine serum at 37° C. and 5% CO2, and the cells were digested with EDTA trypsin according to routine use, and passed two to three times a week for placement.
(2) Animals: C57 BALB/C mice, 6-8 weeks old, female, weighing about 18-22 g, purchased from Shanghai SLAC Laboratory Animal Co., Ltd.
3) Immunization: Mice were intraperitoneally injected with 100 μL of 5×10^5 D121 lung cancer cells that died by repeated freeze-thaw cycles, and immunized 3 times with an interval of 2 weeks.
4) Cell seeding: Collect the tumor cells in logarithmic growth phase, adjust the D121 cell concentration to (1×10^7/ml) with DMEM basal medium, 0.1 ml of the cell suspension was inoculated to the right side of each mouse subcutaneously with a 1 ml syringe. […] Tumor volume was observed and measured, and the average tumor volume reached 100-200 mm^3 about 7 days after inoculation, that is, tumor cell-bearing mice were grouped and administered. The immunized group in Table 9 was immunized with D121 lung cancer cells, and the D121 dead tumor cell immunized group was injected with physiological saline as a control.
The immunosuppressive regulatory point protein Anti-PD-L1 antibody was injected twice a week. A total of two weeks.
6) Experimental observation: During the whole experiment, the use and observation of experimental animals were carried out in accordance with the regulations of AAALAC. The experimental animals were observed daily after inoculation of tumor cells, and their onset and death were recorded. During the routine experiment, all experimental animals were monitored and recorded for behavior, feeding, water intake, weight change, hair shine and other abnormalities.
(7) Analysis of tumor CD8+ T cells (T lymphocyte subsets). Tumor tissues were ground and single cancer cells were isolated by filtration using 40 μm Nylon cell strainer, lysed twice with blood cell lysis buffer for 20 min, washed twice with 1% BSA-PBS buffer, centrifuged, and resuspended, and then the cells were counted again. 1×10^5 cells were incubated with leukocyte co-antigen CD45-PE and CD8-FITC-labeled antibody for 1 hour at room temperature in the dark, and then analyzed the proportion of T lymphocyte antigen (CD8) in leukocyte common antigen (CD45)-positive cells by flow cytometry.

[2] = system: BALB/C mouse; assay: MTD (maximum tolerated dose) acute toxicity in mice; type: in vivo; conditions: intravenous; for Number of deaths: 10 mice per group; for Death dose: observed 17 days
Source text: (§1) Test purpose: to investigate the acute toxicity of highly activated compounds by targeted site molecules of the invention by measuring the MTD (maximum tolerated dose) experiment in mice.
(§2) The injections of each drug and the control drug were uniformly dissolved using water for injection, and diluted to the corresponding dose with physiological saline during the test.
(§3) Methods and results: […] BALB/C mice, weighing 19-21 g, were randomly divided into 10 groups, with 10 mice in each group. […] A control test of the saline group and the adriamycin group injection (commercially available, Beijing Yue kang) was carried out, and the injection volume of each mouse was 0.2 ml. […] On the D3, D5, and D14, blood samples were taken for whole blood count.

[3] = system: CT26 tumor cells; assay: CT26 immunotherapy model (Example 15); type: in vivo, mice
Experimental: (§4) 1) CT26 tumor cells were purchased from ATCC, and the cells were cultured using a 10% fetal bovine serum DMEM medium at 37° C., 5% CO2. The cells were passaged every 3 days and the cells were used within 15 generations.
(§5) 2) Tumor production: 10^6 live CT26 tumor cells were injected subcutaneously into the back of tumor-immunized […], and treatment was started when the tumor grew to about 0.3-0.4 cm. The tumor size (mm^3) of the mice was recorded and compared with the solvent control group. The tumor inhibition rate on day 42 was calculated in the solvent control group.
(§6) 3) Treatment process: IV injection is used, and the drug is used at a dose of ⅓ MTD once a week Immunosuppressive IV injection treatment once a week for a total of 6 weeks of treatment.
(§7) 4) The cure rate of 10 in each group was counted. After 50 days, the cured mice and wild groups were inoculated […] to detect recurrence.

[4] = system: CT26 tumor cells; assay: CT26 treatment model (Example 17); type: in vivo, mice; conditions: CT26 model as in Example 15
Experimental: as §4, §5, §6, §7
The CT26 immunotherapy model was constructed as in Example 15, and the pharmacodynamic and immunotherapeutic effects of the compounds S4-S6, S9-S12 and S15-S18 in the CT26 treatment model were tested.

[5] = MTD (maximum tolerated dose) acute toxicity in mice; type: in vivo, mouse; conditions: mouse, in vivo, BALB/C mice, intravenous, observed 17 days; for MTD at 17 days: female
Source text: as §1, §2, §3

[6] = Solid stability, 60° C. for 10 days in the dark (HPLC); type: physicochemical
Experimental: The test was carried out by leaving it at 60° C. for 10 days in the dark. The ratio of the change in the content of the compound to the compound at time 0 was measured by HPLC, and the stability value (%) was calculated.

[7] = solid, 60° C., 10 days, dark, content versus time 0

Structure (SMILES)	effect on T cells ([1]; flow cytometry, discussion of Table 6)	Tumor inhibition rate/% (week 7) [1]	CD8: CD45 (%) ([1]; flow cytometry)	Number of deaths [2]	Death dose [2]	Cure rate % ([3]; 10 in each group)	Number of cures ([3]; 10 in each group)	Tumor inhibition rate % (Day 42) ([3]; IV ⅓ MTD once a week, 6 weeks)	CD8: CD45 (%) [4]	Number of animals cured [4]	Tumor inhibition rate/% (at week 7) [4]	MTD at 17 days [5]	Stability verdict (stable / unstable) ([6]; solid, 60° C., 10 days, dark)	Stability(%) [6, 7]	Stability verdict (stable / unstable) [6]	Stability(%) [6]	Recurrence rate/% (at week 10) [4]	MTD [5]
COc1cccc2c1C(=O)c1c(O)c3c(c(O)c1C2=O)C[C@@](O)(C(=O)CO)C[C@@H]3O[C@H]1C[C@H](N)[C@H](O)[C@H](C)O1 [Adriamycin, reference compound]	inhibited T cells	14.6%	5.4%	3	10 mg/kg	0%	0	24.5%	6.4%	0	14.6%	–	–	–	–	–	–	–
CC(C)C[C@H](NC(=O)[C@H](CC(N)=O)NC(=O)[C@H](C)NC(=O)[C@H](C)N)C(=O)N(C)CCNC(=O)c1cc(Oc2ccc(NC(=O)Nc3ccc(Cl)c(C(F)(F)F)c3)cc2)ccn1 [Compound C1, AANL-Compound a, reference compound] (H-AANL-X1)	–	–	–	1	80 mg/kg	–	–	–	–	–	–	65 mg/kg	stable	96.8%	–	–	–	–
C[C@H](N)C(=O)N[C@@H](C)C(=O)N[C@@H](CC(N)=O)C(=O)Nc1ccc(COC(=O)N(C)CCNC(=O)c2cc(Oc3ccc(NC(=O)Nc4ccc(Cl)c(C(F)(F)F)c4)cc3)ccn2)cc1 [Compound C2, AAN-PABC-Compound a, reference compound]	–	–	–	2	70 mg/kg	–	–	–	–	–	–	60 mg/kg	unstable	89.4%	–	–	–	–
COc1cccc2c1C(=O)c1c(O)c3c(c(O)c1C2=O)C[C@@](O)(C(=O)CO)C[C@@H]3O[C@H]1C[C@H](NC(=O)[C@H](CC(C)C)NC(=O)[C@H](CC(N)=O)NC(=O)[C@H](C)NC(=O)[C@H](C)NC(=O)CCCCCN2C(=O)C=CC2=O)[C@H](O)[C@H](C)O1 [Compound C11, EMC-AANL-Adriamycin, reference compound] ({Hexanoyl(6-maleimido)}-AANL-{Doxorubicin(3'-N)})	–	–	–	2	120 mg/kg	–	–	–	–	–	–	110 mg/kg	–	–	96.5, stable	96.5, stable %	–	–
CC(NC(=O)C(C)NC(=O)[C@H](O)[C@H](O)[C@@H](O[C@@H]1O[C@H](CO)[C@H](O)[C@H](O)[C@H]1O)[C@H](O)CO)C(=O)NC(CC(N)=O)C(=O)Nc1ccc(COC(=O)Nc2nccc(-c3sc(C(C)(C)C)nc3-c3cccc(NS(=O)(=O)c4c(F)cccc4F)c3F)n2)cc1 (stereo partly shown) [Compound S4]	–	70.7%	15.8%	2	300 mg/kg	–	–	–	11.9%	2	58.9%	280 mg/kg	–	–	–	–	0%	–
CC(NC(=O)C(C)NC(=O)[C@H](O)[C@H](O)[C@@H](O[C@@H]1O[C@H](CO)[C@H](O)[C@H](O)[C@H]1O)[C@H](O)CO)C(=O)NC(CC(N)=O)C(=O)Nc1ccc(COC(=O)Nc2c(-c3nc4ccc(N5CCN(C)CC5)cc4[nH]3)c(=O)[nH]c3cccc(F)c23)cc1 (stereo partly shown) [Compound S5]	–	76.7%	15.3%	2	320 mg/kg	–	–	–	11.5%	1	60.1%	310 mg/kg	–	–	–	–	0%	–
COc1cccc2c1C(=O)c1c(O)c3c(c(O)c1C2=O)C[C@](O)(C(=O)CO)CC3OC1C[C@H](NC(=O)OCc2ccc(NC(=O)C(CC(N)=O)NC(=O)C(C)NC(=O)C(NC(=O)[C@H](O)[C@H](O)[C@@H](O[C@@H]3O[C@H](CO)[C@H](O)[C@H](O)[C@H]3O)[C@H](O)CO)C(C)C)cc2)[C@H](O)[C@H](C)O1 (stereo partly shown) [Compound S9]	–	–	–	2	120 mg/kg	–	–	–	13.8%	3	66.7%	100 mg/kg	–	–	–	–	0%	–
CC(NC(=O)C(NC(=O)[C@H](O)[C@H](O)[C@@H](O[C@@H]1O[C@H](CO)[C@H](O)[C@H](O)[C@H]1O)[C@H](O)CO)C(C)C)C(=O)NC(CC(N)=O)C(=O)Nc1ccc(COC(=O)Nc2nccc(-c3sc(C(C)(C)C)nc3-c3cccc(NS(=O)(=O)c4c(F)cccc4F)c3F)n2)cc1 (stereo partly shown) [Compound S10]	–	–	–	1	320 mg/kg	–	–	–	15.9%	2	76.7%	310 mg/kg	–	–	–	–	0%	–
CC(NC(=O)C(NC(=O)[C@H](O)[C@H](O)[C@@H](O[C@@H]1O[C@H](CO)[C@H](O)[C@H](O)[C@H]1O)[C@H](O)CO)C(C)C)C(=O)NC(CC(N)=O)C(=O)Nc1ccc(COC(=O)Nc2c(-c3nc4ccc(N5CCN(C)CC5)cc4[nH]3)c(=O)[nH]c3cccc(F)c23)cc1 (stereo partly shown) [Compound S11]	–	–	–	2	330 mg/kg	–	–	–	15.1%	2	69.3%	300 mg/kg	–	–	–	–	0%	–
CC(NC(=O)C(NC(=O)[C@H](O)[C@H](O)[C@@H](O[C@@H]1O[C@H](CO)[C@H](O)[C@H](O)[C@H]1O)[C@H](O)CO)C(C)C)C(=O)NC(CC(N)=O)C(=O)Nc1ccc(COC(=O)N2CC(C)(C)c3ccc(NC(=O)c4cccnc4NCc4ccncc4)cc32)cc1 (stereo partly shown) [Compound S12]	–	–	–	1	300 mg/kg	–	–	–	10.8%	1	55.5%	290 mg/kg	–	–	–	–	0%	–
COc1cccc2c1C(=O)c1c(O)c3c(c(O)c1C2=O)C[C@](O)(C(=O)CO)CC3OC1C[C@H](NC(=O)OCc2ccc(NC(=O)C(CC(N)=O)NC(=O)C(C)NC(=O)C(NC(=O)[C@H](O)[C@H](O)[C@@H](O[C@@H]3O[C@H](CO)[C@H](O)[C@H](O)[C@H]3O)[C@H](O)CO)C(C)O)cc2)[C@H](O)[C@H](C)O1 (stereo partly shown) [Compound S15]	–	–	–	1	100 mg/kg	–	–	–	15.3%	1	70.2%	90 mg/kg	–	–	–	–	0%	–
C[C@H](NC(=O)[C@@H](NC(=O)[C@H](O)[C@@H](O)[C@H](O[C@@H]1O[C@H](CO)[C@H](O)[C@H](O)[C@H]1O)[C@H](O)CO)[C@@H](C)O)C(=O)N[C@@H](CC(N)=O)C(=O)Nc1ccc(COC(=O)Nc2nccc(-c3sc(C(C)(C)C)nc3-c3cccc(NS(=O)(=O)c4c(F)cccc4F)c3F)n2)cc1 [Compound S16]	–	–	–	2	300 mg/kg	–	–	–	15.5%	2	71.6%	–	–	–	–	–	0%	290 mg/kg
CC(NC(=O)C(NC(=O)[C@H](O)[C@H](O)[C@@H](O[C@@H]1O[C@H](CO)[C@H](O)[C@H](O)[C@H]1O)[C@H](O)CO)C(C)O)C(=O)NC(CC(N)=O)C(=O)Nc1ccc(COC(=O)Nc2c(-c3nc4ccc(N5CCN(C)CC5)cc4[nH]3)c(=O)[nH]c3cccc(F)c23)cc1 (stereo partly shown) [Compound S17]	–	–	–	1	310 mg/kg	–	–	–	16.2%	1	70.9%	290 mg/kg	–	–	–	–	0%	–
CC(NC(=O)C(NC(=O)[C@H](O)[C@H](O)[C@@H](O[C@@H]1O[C@H](CO)[C@H](O)[C@H](O)[C@H]1O)[C@H](O)CO)C(C)O)C(=O)NC(CC(N)=O)C(=O)Nc1ccc(COC(=O)N2CC(C)(C)c3ccc(NC(=O)c4cccnc4NCc4ccncc4)cc32)cc1 (stereo partly shown) [Compound S18]	–	–	–	2	290 mg/kg	–	–	–	15.6%	2	71.7%	280 mg/kg	–	–	–	–	0%	–
